In patent US11415513B2, “Method for determining the degree of sensitivity of a strain of fungus to an antifungal agent” (UNIVERSITE GRENOBLE ALPES, priority 2015, dated 2022):
In brackets after ≈: the same amount, converted by molar mass. Starred links: 1 amine or outer side, 2 acyl side, 3 side chain; linkers in the order of their positions; H or OH if unused. Positions of bridges follow the written chain, without caps; N, C: chain ends. Non-standard residues stand in square brackets, D forms with d. Residues, ends and D or L forms follow the SMILES beside them. *: point of attachment. hTyr(3S-OH,4S-OH,3'-OSO3H) = N[C@H](C(=O)O)[C@H](O)[C@@H](O)c1ccc(O)c(OS(=O)(=O)O)c1; Orn(4R-OH,5R-OH) = O=C([C@H](C[C@@H](O)[C@@H](O)N[*:3])N[*:1])[*:2]; Pro(3S-OH,4S-Me) = C[C@H]1CN[C@H](C(=O)O)[C@H]1O; X1 = CCCCCOc1ccc(-c2cc(-c3ccc(C(=O)*)cc3)no2)cc1; Gln(3R-OH) = NC(=O)C[C@@H](O)[C@H](N)C(=O)O; Hyp = O=C(O)[C@@H]1C[C@@H](O)CN1

Assays:
[1] = system: strain TOP of C. albicans; assay: Sensitivity test by HCA microscopy (chitin level, Calcofluor White); format: cell-based, Candida albicans; conditions: 6.5 h at 30° C., SC medium
Procedure: (§1) The strains of Candida were incubated beforehand at 30° C. overnight in a yeast extract medium—peptone dextrose (YPD) (1% bacto peptone, 0.5% yeast extract, 2% glucose, 1.5% agar).
(§2) Yeast colonies were then removed from YPD medium plates and suspended in a 0.9% NaCl saline solution, in which the cell concentration was estimated by optical microscopy using Kova counting slides. […]
(§3) A step of acquiring images by automated fluorescence microscopy (ScanR screening station, Olympus), using a 40× lens and a CFW filter, made it possible to obtain 30 images per well so as to capture enough cells to provide statistically significant data. These images were analysed by software (ScanR analysis software, Olympus). Firstly, the background noise was processed so as to improve the contrast between the fluorescence of the yeasts and background noise. […] Segmentation of the fluorescent elements present in each of the acquired images was then performed using an algorithm predefined in the software, making it possible to determine the limit of each element on the basis of the fluorescence intensity of said element. […]
(§4) Each element then corresponding to a yeast, it was thus possible, on the basis of these elements predefined beforehand, to define the fluorescence intensity for each of the yeasts, this intensity being directly correlated with the chitin content of their wall. […]

[2] = system: strain TOP of C. albicans; assay: Etest method (MIC); format: cell-based, Candida albicans; conditions: RPMI medium plates, 24 h at 35° C.
Procedure: (§5) The Etest® method is a commercial test for determining the sensitivity of a strain, most frequently used routinely in clinical mycology laboratories.
(§6) The Etest® tests were performed according to the manufacturer's instructions. After distributing a standardised Mac Farland 0.5 inoculum (equivalent of […]) over plates of RPMI medium, said plates were incubated for 24 h at 35° C., with the exception of C. glabrata in which case the incubation was extended to 48 h so as to be able to determine the minimum inhibitory concentration (MIC).
(§7) The results of the MICs obtained were interpreted in accordance with the tables of the CLSI (Clinical and Laboratory Standards Institute) and/or of EUCAST (European Committee on Antimicrobial Susceptibility Testing) (Arendrup M C, Cuenca-Estrella M, Lass-Flörl C, Hope W W (2014) Breakpoints for antifungal agents: an update from EUCAST focussing on echinocandins against Candida spp and triazoles against Aspergillus spp. Drug Resist Updat 16(6):81-95. doi:10.1016/j.drup.2014.01.001) (cf. Table 2 taken from Maubon D, Garnaud C, Calandra T, et al. (2014) Resistance of Candida spp. to antifungal drugs in the ICU: where are we now? Intensive Care Med. doi: 10.1007/s00134-014-3404-7) which list the clinical thresholds (CBPs) for the most common species of yeast of the genus Candida as a function of different antifungal agents, or according to the table of epidemiological thresholds (ECVs).

[3] = system: strain 13/5 of C. tropicalis; assay: Sensitivity test by HCA microscopy (chitin level, Calcofluor White); format: cell-based, Candida tropicalis; conditions: 6.5 h at 30° C., SC medium
Procedure: as §1, §2, §3, §4

[4] = system: strain 13/5 of C. tropicalis; assay: Etest method (MIC); format: cell-based, Candida tropicalis; conditions: RPMI medium plates, 24 h at 35° C.
Procedure: as §5, §6, §7

[5] = vs cells in the absence of antifungal agent, concentration gradient up to 1 μg/ml

CCCCCOc1ccc(-c2cc(-c3ccc(C(=O)N[C@H]4C[C@@H](O)[C@@H](O)NC(=O)[C@@H]5[C@@H](O)[C@@H](C)CN5C(=O)[C@H]([C@H](O)CC(N)=O)NC(=O)[C@H]([C@H](O)[C@@H](O)c5ccc(O)c(OS(=O)(=O)O)c5)NC(=O)[C@@H]5C[C@@H](O)CN5C(=O)[C@H]([C@@H](C)O)NC4=O)cc3)no2)cc1 [micafungin] (X1-[Orn(4R-OH,5R-OH)]T[Hyp][hTyr(3S-OH,4S-OH,3'-OSO3H)][Gln(3R-OH)][Pro(3S-OH,4S-Me)]; lactam 1-C)
phenotype of the strain with respect to the antifungal agent (HCA) [1]: resistant (an increase in the chitin level having a value less than 10% or a decrease in the chitin level of less than 20% or an unchanged chitin level)
increase in the chitin level in the wall of the cells [1, 5]: less than 10%
MIC ([2]; Candida albicans): 1 µg/mL (≈ 0.787 µM)
phenotype by Etest MIC, interpretation by the EUCAST and CLSI tables [2]: resistant
phenotype of the strain with respect to the antifungal agent (HCA) [3]: resistant (an increase in the chitin level having a value less than 10% or a decrease in the chitin level of less than 20% or an unchanged chitin level)
increase in the chitin level in the wall of the cells [3, 5]: less than 10%
MIC ([4]; Candida tropicalis): 1.5 µg/mL (≈ 1.18 µM)
phenotype by Etest MIC, interpretation by the CLSI table [4]: resistant
